In patent US20120070411A1, “SUBSTITUTED NUCLEOTIDE ANALOGS” (Alios BioPharma, Inc., priority 2010, published 2012):

System: Huh-7 cells containing the self-replicating, subgenomic HCV replicon
Assay: HCV replicon assay (luciferase reporter, 72 h)
Type: cell-based
Details: Hepatitis C virus, Huh-7, 72 h, read-out: HCV Replicon Activity (EC50)
Description: Huh-7 cells containing the self-replicating, subgenomic HCV replicon with a stable luciferase (LUC) reporter were cultured in Dulbecco's modified Eagle's medium (DMEM) containing 2 mM L-glutamine and supplemented with 10% heat-inactivated fetal bovine serum (FBS), 1% penicillin-streptomyocin, 1% nonessential amino acids, and 0.5 mg/ml G418.
On the first day, 5,000 HCV replicon cells were plated per well in a 96-well plate. On the following day, test compounds were solubilized in 100% DMSO to 100× the desired final testing concentration. Each compound was then serially diluted (1:3) up to 9 different concentrations. Compounds in 100% DMSO are reduced to 10% DMSO by diluting 1:10 in cell culture media. The compounds were diluted to 10% DMSO with cell culture media, which were used to dose the HCV replicon cells in 96-well format. The final DMSO concentration was 1%. The HCV replicon cells were incubated at 37° C. for 72 hours. At 72 hours, cells were processed when the cells are still subconfluent. Compounds that reduce the LUC signal are determined by Bright-Glo Luciferase Assay (Promega, Madison, Wis.). % Inhibition was determined for each compound concentration in relation to the control cells (untreated HCV replicon) to calculate the EC50.

Row | Structure (SMILES) | EC50 [µM]
1 | COC(=O)[C@H](C)NP(=O)(Oc1ccccc1)O[C@H](C)[C@H]1O[C@@H](n2cnc3c(N)ncnc32)[C@H](O)[C@@H]1O (stereo partly drawn) | < 30
2 | COC(=O)[C@H](C)NP(=O)(Oc1ccccc1)O[C@@H](C)[C@H]1O[C@@H](n2cnc3c(N)ncnc32)[C@](C)(O)[C@@H]1O (stereo partly drawn) | < 1000
3 | CCOC(=O)[C@H](C)NP(=O)(Oc1ccccc1)O[C@@H](C)[C@H]1O[C@@H](n2cnc3c(N)ncnc32)[C@H](O)[C@@H]1O (stereo partly drawn) | < 30
4 | COC(=O)[C@H](C)N[P@@](=O)(Oc1ccccc1)O[C@@H](C)[C@H]1O[C@@H](n2cnc3c(N)ncnc32)[C@H](O)[C@@H]1O | < 5
5 | COC(=O)[C@H](C)N[P@](=O)(Oc1ccccc1)O[C@@H](C)[C@H]1O[C@@H](n2cnc3c(N)ncnc32)[C@H](O)[C@@H]1O | < 5
6 | COC(=O)[C@H](C)NP(=O)(Oc1ccccc1)O[C@@H](C)[C@H]1O[C@@H](n2ccc(N)nc2=O)C(F)(F)[C@@H]1O (mixture of isomers) [C5, 2′-Deoxy-2′,2′-difluoro-5′(S)—C-methylcytidine 5′-[phenyl(methoxy-L-alaninyl)]phosphate] | < 1
7 | COC(=O)[C@H](C)NP(=O)(Oc1ccccc1)OC(C)[C@H]1O[C@@H](n2ccc(N)nc2=O)[C@@H](F)[C@@H]1O (mixture of isomers) [C9, 2′-deoxy-2′-C-β-fluoro-5′(R/S)—C-methylcytidine-5′-[phenyl-(methoxy-L-alaninyl)]phosphate] | < 100
8 | CC(C)OC(=O)[C@H](C)NP(=O)(Oc1cccc2ccccc12)OC(C)[C@H]1O[C@@H](n2ccc(N)nc2=O)[C@@H](C)[C@@H]1O (mixture of isomers) [C10, 2′-deoxy-2′-C-β-methyl-5′(R/S)—C-methylcytidine 5′-[1-naphthyl (isopropoxy-L-alaninyl)]phosphate] | < 30
9 | COC(=O)C(C)NP(=O)(Oc1ccccc1)OC(C)[C@H]1O[C@@H](n2ccc(=O)[nH]c2=O)C(C)C1O (mixture of isomers) [D7] | < 30
10 | C[C@H](NP(=O)(Oc1ccc(F)cc1)O[C@@H](C)[C@H]1O[C@@H](n2cnc3c(N)ncnc32)[C@H](O)[C@@H]1O)C(=O)OC1CCCCC1 (stereo in doubt) [A31] | < 1
11 | C[C@H](NP(=O)(Oc1cccc2ncccc12)O[C@@H](C)[C@H]1O[C@@H](n2cnc3c(N)ncnc32)[C@H](O)[C@@H]1O)C(=O)OC1CCCCC1 (stereo in doubt) [A35] | < 30
12 | CC(C)OC(=O)[C@H](C)N[P@](=O)(Oc1cccc2ccccc12)O[C@@H](C)[C@H]1O[C@@H](n2cnc3c(=O)[nH]cnc32)[C@H](O)[C@@H]1O (stereo in doubt) [B5, 5′(S)—C-methylinosine 5′-[1-naphthyl(isopropoxy-L-alaninyl)]phosphate] | < 100
13 | COC(=O)C(C)NP(=O)(Oc1ccccc1)OC(C)[C@H]1O[C@@H](n2ccc(=O)[nH]c2=O)C(F)(F)C1O (stereo in doubt) [D4, 2′-Deoxy-2′,2′-difluoro-5′(S)—C-methyluridine 5′-[phenyl(methoxy-L-alaninyl)]phosphate] | < 30
14 | C[C@H](NP(=O)(Oc1cccc2ccccc12)O[C@@H](C)[C@H]1O[C@@H](n2cnc3c(N)ncnc32)[C@H](O)[C@@H]1O)C(=O)OC1CCCCC1 (stereo partly drawn) [A1, 5′(S)—C-methyladenosine 5′-[1-naphthyl(cyclohexoxy-L-alaninyl)]phosphate] | < 1
15 | C[C@H](NP(=O)(Oc1cccc2ccccc12)O[C@@H](C)[C@H]1O[C@@H](n2cnc3c(N)ncnc32)[C@H](O)[C@@H]1O)C(=O)OCC(C)(C)C (stereo partly drawn) [A2, 5′(S)—C-methyladenosine 5′-[1-naphthyl(neopentoxy-L-alaninyl)]phosphate] | < 1
16 | C[C@H](NP(=O)(Oc1cccc2ccccc12)O[C@@H](C)[C@H]1O[C@@H](n2cnc3c(N)ncnc32)[C@@H]2OC(=O)O[C@@H]21)C(=O)OC1CCCCC1 (stereo partly drawn) [A3, 2′,3′-O-carbonyl-5′(S)—C-methyladenosine 5′-[1-naphthyl(cyclohexoxy-L-alaninyl)]phosphate] | < 1
17 | C[C@H](NP(=O)(Oc1cccc2ccccc12)O[C@@H](C)[C@H]1O[C@@H](n2cnc3c(N)ncnc32)[C@@H]2OC(=O)O[C@@H]21)C(=O)OCC(C)(C)C (stereo partly drawn) [A4, 2′,3′-O-carbonyl-5′(S)—C-methyladenosine 5′-[1-naphthyl(neopentoxy-L-alaninyl)]phosphate] | < 1
18 | COC(=O)Nc1ncnc2c1ncn2[C@@H]1O[C@H]([C@H](C)OP(=O)(N[C@@H](C)C(=O)OC2CCCCC2)Oc2cccc3ccccc23)[C@H]2OC(=O)O[C@H]21 (stereo partly drawn) [A5, 2′,3′-O-carbonyl-N6-methoxycarbonyl-5′(S)—C-methyladenosine 5′-[1-naphthyl(cyclohexoxy-L-alaninyl)]phosphate] | < 30
19 | COC(=O)Nc1ncnc2c1ncn2[C@@H]1O[C@H]([C@H](C)OP(=O)(N[C@@H](C)C(=O)OC2CCCCC2)Oc2cccc3ccccc23)[C@@H](O)[C@H]1O (stereo partly drawn) [A6, N6-methoxycarbonyl-5′(S)—C-methyladenosine 5′-[1-naphthyl(cyclohexoxy-L-alaninyl)]phosphate] | < 30
20 | COC(=O)Nc1ncnc2c1ncn2[C@@H]1O[C@H]([C@H](C)OP(=O)(N[C@@H](C)C(=O)OCC(C)(C)C)Oc2cccc3ccccc23)[C@H]2OC(=O)O[C@H]21 (stereo partly drawn) [A7, 2′,3′-O-carbonyl-N6-methoxycarbonyl-5′(S)—C-methyladenosine 5′-[1-naphthyl(neopentoxy-L-alaninyl)]phosphate] | < 30
21 | CC(C)OC(=O)[C@H](C)NP(=O)(Oc1ccccc1)O[C@@H](C)[C@H]1O[C@@H](n2cnc3c(N)ncnc32)[C@H](O)[C@@H]1O (stereo partly drawn) [A8, 5′(S)—C-methyladenosine 5′-[phenyl(isopropoxy-L-alaninyl)]phosphate] | < 1
22 | CC(C)OC(=O)[C@H](C)NP(=O)(Oc1ccccc1)O[C@@H](C)[C@H]1O[C@@H](n2cnc3c(N)ncnc32)[C@@H]2OC(=O)O[C@@H]21 (stereo partly drawn) [A9, 2′,3′-carbonyl-5′(S)—C-methyladenosine 5′-[phenyl(isopropoxy-L-alaninyl)]phosphate] | < 1
23 | C[C@H](NP(=O)(Oc1ccccc1)O[C@@H](C)[C@H]1O[C@@H](n2cnc3c(N)ncnc32)[C@H](O)[C@@H]1O)C(=O)OC1CCCCC1 (stereo partly drawn) [A10, 5′(S)—C-methyladenosine 5′-[phenyl(cyclohexoxy-L-alaninyl)]phosphate] | < 1
24 | C[C@H](N[P@@](=O)(Oc1ccccc1)O[C@@H](C)[C@H]1O[C@@H](n2cnc3c(N)ncnc32)[C@H](O)[C@@H]1O)C(=O)OC1CCCCC1 [A10a, 5′(S)—C-methyladenosine 5′(S)-[phenyl(cyclohexoxy-L-alaninyl)]phosphate] | < 1
25 | C[C@H](N[P@](=O)(Oc1ccccc1)O[C@@H](C)[C@H]1O[C@@H](n2cnc3c(N)ncnc32)[C@H](O)[C@@H]1O)C(=O)OC1CCCCC1 [A10b, 5′(S)—C-methyladenosine 5′(R)-[phenyl(cyclohexoxy-L-alaninyl)]phosphate] | < 1
26 | C[C@H](NP(=O)(Oc1ccccc1)O[C@@H](C)[C@H]1O[C@@H](n2cnc3c(N)ncnc32)[C@H](O)[C@@H]1O)C(=O)OCC(C)(C)C (stereo partly drawn) [A11, 5′(S)—C-methyladenosine 5′-[phenyl(neopentoxy-L-alaninyl)]phosphate] | < 1
27 | C[C@H](NP(=O)(Oc1ccccc1)O[C@@H](C)[C@H]1O[C@@H](n2cnc3c(N)ncnc32)[C@@H]2OC(=O)O[C@@H]21)C(=O)OCC(C)(C)C (stereo partly drawn) [A12, 2′,3′-O-carbonyl-5′(S)—C-methyladenosine 5′-[phenyl(neopentoxy-L-alaninyl)]phosphate] | < 1
28 | C[C@H](NP(=O)(Oc1ccccc1)O[C@@H](C)[C@H]1O[C@@H](n2cnc3c(N)ncnc32)[C@@H]2OC(=O)O[C@@H]21)C(=O)OC1CCCCC1 (stereo partly drawn) [A13, 2′,3′-O-carbonyl-5′(S)—C-methyladenosine 5′-[phenyl(cyclohexoxy-L-alaninyl)]phosphate] | < 1

Same assay, conditions: Hepatitis C virus; Table 9; Huh-7 HCV replicon cells, luciferase, 72 hours; read-out: HCV Replicon Activity (EC50)

Row | Structure (SMILES) | EC50 [µM]
29 | CC(O)[C@H]1O[C@@H](n2ccc(N)nc2=O)[C@@H](F)[C@@H]1O (stereo partly drawn) | 5 to 30
30 | C[C@@H](O)[C@H]1O[C@@H](n2ccc(N)nc2=O)C(F)(F)[C@@H]1O | < 5
31 | C[C@@H](O)[C@H]1O[C@@H](n2cnc3c(N)ncnc32)[C@](C)(O)[C@@H]1O | 5 to 30
32 | C[C@H](O)[C@H]1O[C@@H](n2ccc(N)nc2=O)[C@@H](O)[C@@H]1O | 30 to 200
33 | CC(O)[C@H]1O[C@@H](n2cnc3c(=O)[nH]c(N)nc32)[C@H](O)[C@@H]1O (stereo partly drawn) | 30 to 200
34 | CC(OC(=O)c1ccccc1)[C@H]1O[C@@H](n2ccc(=O)[nH]c2=O)[C@](C)(OC(=O)c2ccccc2)[C@@H]1OC(=O)c1ccccc1 (stereo partly drawn) | 5 to 30
35 | C[C@H](O)[C@H]1O[C@@H](n2ccc(N)nc2=O)C(F)(F)[C@@H]1O | < 5
36 | C[C@H](O)[C@H]1O[C@@H](n2ccc(N)nc2=O)[C@H](F)[C@@H]1O | 5 to 30
37 | CC(=O)Nc1ccn([C@@H]2O[C@H]([C@H](C)OC(C)=O)[C@@H](OC(C)=O)C2(F)F)c(=O)n1 | < 5
38 | CCC(=O)O[C@@H](C)[C@H]1O[C@@H](n2ccc(N)nc2=O)C(F)(F)[C@@H]1O | < 5
39 | CCC(=O)O[C@@H](C)[C@H]1O[C@@H](n2ccc(N)nc2=O)C(F)(F)[C@@H]1OC(=O)CC | < 5
40 | CC(=O)O[C@@H](C)[C@H]1O[C@@H](n2ccc(N)nc2=O)C(F)(F)[C@@H]1O | < 5
41 | CC(=O)O[C@@H](C)[C@H]1O[C@@H](n2ccc(N)nc2=O)C(F)(F)[C@@H]1OC(C)=O | < 5
42 | C[C@@H](O)[C@H]1O[C@@H](n2ccc(N)nc2=O)[C@@H](O)[C@@H]1O | < 5
